The values below come from PubChem BioAssay AID282 (DTP/NCI, 2004).

Where “and” joins values, the source holds several entries; their conditions need not be identical. Identical values can stand only once. Inconclusive results and toxic doses are left out.

The assay deals with BDF1 mice, L1210 terephthalanilide-resistant leukemia ip, survival T/C. Kind of assay: NCI In Vivo Anticancer Drug Screen. Data for tumor model L1210 Leukemia resistant to A Terephthalanilide; NSC 38280 (intraperitoneal) in B6D2F1 (BDF1) mice. The settings on record: endpoint: mean survival time, higher = longer survival. On the procedure:
The antitumor activity of compounds was measured in mice bearing transplantable tumors. Survival or tumor size were measured and the results are expressed as the measurement made in the treated group (T) divided by the measurement made in the vehicle treated control group (C). The tumor model used in this assay is L1210 Leukemia resistant to A Terephthalanilide; NSC 38280 (intraperitoneal) in B6D2F1 (BDF1) mice

Setting [1] is: dose: 10.0 mg/kg/injection, schedule: Q01DX010 (ip), vehicle: saline.
[2] abbreviates: dose: 50.0 mg/kg/injection, schedule: Q01DX Z (ip), vehicle: carboxymethylcellulose (CMC).
[3] abbreviates: dose: 25.0 mg/kg/injection, schedule: Q01DX010 (ip), vehicle: saline.
[4] abbreviates: dose: 50.0 mg/kg/injection, schedule: Q01DX010 (ip), vehicle: saline.
[5] abbreviates: dose: 62.5 mg/kg/injection, schedule: Q01DX Z (ip), vehicle: carboxymethylcellulose (CMC).
The mark [6] stands for this setting: dose: 200.0 mg/kg/injection, schedule: Q01DX010 (ip), vehicle: saline.
Setting [7] is: dose: 25.0 mg/kg/injection, schedule: Q01DX Z (ip), vehicle: carboxymethylcellulose (CMC).
Where [8] appears, read: dose: 100.0 mg/kg/injection, schedule: Q01DX Z (ip), vehicle: carboxymethylcellulose (CMC).
The mark [9] stands for this setting: dose: 200.0 mg/kg/injection, schedule: Q01DX Z (ip), vehicle: carboxymethylcellulose (CMC).

Turning to `Cn1c(N)nc2nc[nH]c2c1=S`, the T/C under setting [1] was 103 % of control; the T/C (dose: 16.0 mg/kg/injection, schedule: Q01DX Z (ip), vehicle: carboxymethylcellulose (CMC)) was 111 % of control; the T/C (dose: 20.0 mg/kg/injection, schedule: Q01DX010 (ip), vehicle: saline) was 93 % of control; the T/C (dose: 31.0 mg/kg/injection, schedule: Q01DX Z (ip), vehicle: carboxymethylcellulose (CMC)) was 120 % of control; the T/C (dose: 37.5 mg/kg/injection, schedule: Q01DX Z (ip), vehicle: carboxymethylcellulose (CMC)) is 150 % of control; the T/C (dose: 40.0 mg/kg/injection, schedule: Q01DX010 (ip), vehicle: saline) was 99 % of control. Also, the T/C under setting [2] was 154 % of control; the T/C (dose: 75.0 mg/kg/injection, schedule: Q01DX Z (ip), vehicle: carboxymethylcellulose (CMC)) was 119 % of control; the T/C (dose: 80.0 mg/kg/injection, schedule: Q01DX010 (ip), vehicle: saline) was 100 % of control; the T/C (dose: 150.0 mg/kg/injection, schedule: Q01DX Z (ip), vehicle: carboxymethylcellulose (CMC)) was 150 % of control.
Take `CSc1ncnc2nc[nH]c12`: the T/C runs as follows: under setting [3], 98 % of control and 100 % of control; (dose: 31.25 mg/kg/injection, schedule: Q01DX Z (ip), vehicle: carboxymethylcellulose (CMC)) 102 % of control; under setting [4], 100 % of control and 102 % of control; under setting [5], 105 % of control; (dose: 100.0 mg/kg/injection, schedule: Q01DX010 (ip), vehicle: saline) 102 % of control and 107 % of control; (dose: 125.0 mg/kg/injection, schedule: Q01DX Z (ip), vehicle: carboxymethylcellulose (CMC)) 113 % of control. In addition, the T/C under setting [6] was 102 % of control and 105 % of control.
As for `CS(=O)(=O)OCC(O)C(O)COS(C)(=O)=O` (stereo not drawn), the T/C is, setting by setting: under setting [7], 107 % of control; under setting [2], 103 % of control; under setting [8], 103 % of control; under setting [6], 101 % of control; under setting [9], 101 % of control; (dose: 250.0 mg/kg/injection, schedule: Q01DX Z (ip), vehicle: carboxymethylcellulose (CMC)) 100 % of control. Also, the T/C by setting is: (dose: 375.0 mg/kg/injection, schedule: Q01DX Z (ip), vehicle: carboxymethylcellulose (CMC)) 111 % of control; (dose: 400.0 mg/kg/injection, schedule: Q01DX010 (ip), vehicle: saline) 97 % of control; (dose: 800.0 mg/kg/injection, schedule: Q01DX010 (ip), vehicle: saline) 91 % of control.
With `S=P(N1CC1)(N1CC1)N1CC1`, the T/C (dose: 0.75 mg/kg/injection, schedule: Q01DX010 (ip), vehicle: saline) was 97 % of control and 115 % of control; the T/C (dose: 1.5 mg/kg/injection, schedule: Q01DX010 (ip), vehicle: saline) is 124 % of control and 105 % of control; the T/C (dose: 3.0 mg/kg/injection, schedule: Q01DX010 (ip), vehicle: saline) is 118 % of control; the T/C (dose: 6.0 mg/kg/injection, schedule: Q01DX010 (ip), vehicle: saline) is 94 % of control and 100 % of control.
Turning to `C[C@H](N)C(=O)N[C@@H]1[C@H]2C(=C(O)C[C@@H](O)[C@@H]2O)C(=O)O[C@@H]1C`, the T/C is 156 % of control (dose: 375.0 mg/kg/injection, schedule: Q01DX Z (ip), vehicle: saline); 170 % of control (dose: 500.0 mg/kg/injection, schedule: Q01DX Z (ip), vehicle: saline); 202 % of control (dose: 750.0 mg/kg/injection, schedule: Q01DX Z (ip), vehicle: saline).
Turning to `O[C@H](CN1CC1)[C@@H](O)CN1CC1`, the T/C is, setting by setting: (dose: 0.18 mg/kg/injection, schedule: Q01DX Z (ip), vehicle: saline) 317 % of control; (dose: 0.25 mg/kg/injection, schedule: Q01DX Z (ip), vehicle: saline) 300 % of control; (dose: 0.37 mg/kg/injection, schedule: Q01DX Z (ip), vehicle: saline) 223 % of control; (dose: 5.0 mg/kg/injection, schedule: Q01DX Z (ip), vehicle: saline) 188 % of control; (dose: 2.0 micrograms/kg/injection, schedule: Q01DX Z (ip), vehicle: saline) 109 % of control; (dose: 4.0 micrograms/kg/injection, schedule: Q01DX Z (ip), vehicle: saline) 101 % of control. In addition, the T/C runs as follows: (dose: 6.0 micrograms/kg/injection, schedule: Q01DX Z (ip), vehicle: saline) 98 % of control; (dose: 9.0 micrograms/kg/injection, schedule: Q01DX Z (ip), vehicle: saline) 110 % of control; (dose: 18.0 micrograms/kg/injection, schedule: Q01DX Z (ip), vehicle: saline) 115 % of control; (dose: 37.0 micrograms/kg/injection, schedule: Q01DX Z (ip), vehicle: saline) 103 % of control; (dose: 50.0 micrograms/kg/injection, schedule: Q01DX Z (ip), vehicle: saline) 156 % of control; (dose: 62.5 micrograms/kg/injection, schedule: Q01DX010 (ip), vehicle: saline) 120 % of control. Also, the T/C reads like this: (dose: 75.0 micrograms/kg/injection, schedule: Q01DX Z (ip), vehicle: saline) 154 % of control and 162 % of control; (dose: 125.0 micrograms/kg/injection, schedule: Q01DX010 (ip), vehicle: saline) 111 % of control; (dose: 180.0 micrograms/kg/injection, schedule: Q01DX Z (ip), vehicle: saline) 284 % of control; (dose: 210.0 micrograms/kg/injection, schedule: Q01DX Z (ip), vehicle: saline) 235 % of control; (dose: 500.0 micrograms/kg/injection, schedule: Q01DX010 (ip), vehicle: saline) 91 % of control.
For `Clc1ccc(C(c2ccccc2Cl)C(Cl)Cl)cc1` (stereo not drawn), the T/C is 102 % of control (dose: 62.5 mg/kg/injection, schedule: Q01DX Z (sc), vehicle: steriod suspending solution); 104 % of control (dose: 125.0 mg/kg/injection, schedule: Q01DX Z (sc), vehicle: steriod suspending solution); 93 % of control (dose: 250.0 mg/kg/injection, schedule: Q01DX Z (sc), vehicle: steriod suspending solution); 102 % of control (dose: 500.0 mg/kg/injection, schedule: Q01DX Z (sc), vehicle: steriod suspending solution); 100 % of control (dose: 750.0 mg/kg/injection, schedule: Q01DX Z (sc), vehicle: steriod suspending solution); 95 % of control (dose: 1000.0 mg/kg/injection, schedule: Q01DX Z (sc), vehicle: steriod suspending solution). In addition, the T/C runs as follows: (dose: 1200.0 mg/kg/injection, schedule: Q01DX Z (sc), vehicle: steriod suspending solution) 94 % of control; (dose: 1500.0 mg/kg/injection, schedule: Q01DX Z (sc), vehicle: steriod suspending solution) 91 % of control.
Regarding `C[C@H]1C(=O)O[C@@H]2CCN3CC=C(COC(=O)[C@](C)(O)[C@@]1(C)O)[C@H]23`, the T/C is 97 % of control (dose: 3.13 mg/kg/injection, schedule: Q01DX010 (ip), vehicle: saline); 102 % of control (dose: 6.25 mg/kg/injection, schedule: Q01DX010 (ip), vehicle: saline); 97 % of control and 106 % of control (dose: 12.5 mg/kg/injection, schedule: Q01DX010 (ip), vehicle: saline); 103 % of control and 106 % of control under setting [3]; 107 % of control under setting [7]; 100 % of control under setting [4]. The T/C runs as follows: under setting [2], 100 % of control; under setting [8], 119 % of control; under setting [9], 161 % of control.
As for `S=c1nc[nH]c2nc[nH]c12`, the T/C runs as follows: (dose: 2.5 mg/kg/injection, schedule: Q01DX Z (ip), vehicle: carboxymethylcellulose (CMC)) 120 % of control; (dose: 7.5 mg/kg/injection, schedule: Q01DX Z (ip), vehicle: carboxymethylcellulose (CMC)) 165 % of control; (dose: 10.0 mg/kg/injection, schedule: Q01DX Z (ip), vehicle: carboxymethylcellulose (CMC)) 172 % of control; (dose: 12.5 mg/kg/injection, schedule: Q01DX Z (ip), vehicle: carboxymethylcellulose (CMC)) 156 % of control; under setting [7], 152 % of control; under setting [5], 120 % of control. The T/C under setting [8] was 107 % of control.
For the molecule `CC[n+]1c(-c2ccccc2)c2cc(N)ccc2c2ccc(N)cc21`, the T/C (dose: 1.25 mg/kg/injection, schedule: Q01DX010 (ip), vehicle: saline) is 100 % of control; the T/C (dose: 2.5 mg/kg/injection, schedule: Q01DX010 (ip), vehicle: saline) is 90 % of control; the T/C (dose: 5.0 mg/kg/injection, schedule: Q01DX010 (ip), vehicle: saline) is 101 % of control; the T/C under setting [1] is 95 % of control.
